# Where “and” joins values, the source holds several entries; their conditions need not be identical. Identical values can stand only once. Like-named read-outs stand apart in the source and are kept apart here.
# Tests used:
# [1] = target: T1, purified sigma-1 receptor (Cavia porcellus, UniProt Q60492); assay: Competitive displacement of [3H]-(+)-pentazocine at the pure sigma-1 receptor; type: binding, guinea pig; settings: read-out: Ki Pure σ-1R
# T1 construct: made in house; host or cells: E. coli BL21 DE3
# T1 sequence (Q60492 whole entry): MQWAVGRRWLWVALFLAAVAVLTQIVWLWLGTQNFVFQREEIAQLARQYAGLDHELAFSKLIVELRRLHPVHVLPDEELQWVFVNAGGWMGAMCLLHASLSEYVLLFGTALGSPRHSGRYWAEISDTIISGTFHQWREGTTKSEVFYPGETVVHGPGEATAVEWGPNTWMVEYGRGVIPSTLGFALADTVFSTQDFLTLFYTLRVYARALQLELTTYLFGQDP
# Experimental: A guinea pig sigma-1 receptor was purified as previously described (Ramachandran et al., Protein Expr. Purif., 2007. 51(2): 283-92). The pMal P2X plasmid (New England Biolabs) encoding the guinea pig sigma-1 receptor on the C-terminus of the E. coli Maltose Binding Protein was used for purification. The sigma-1 receptor on its C-terminus carried a hexa-histadine epitope tag. Protein was expressed in the E. coli strain BL21 DE3 (Novagen) with 0.6 mM IPTG. The E. coli pellet was sonicated and centrifuged at 100,000 g for 1 hour to separate the particulate and soluble fractions. The particulate fraction was extracted with Triton X-100, centrifuged and the extract was loaded onto an amylose resin (New England Biolabs, E-802). After washing the resin with buffer containing 0.5% Triton X-100, the MBP-sigma-1 receptor fusion protein was eluted with buffer containing 10 mM maltose.
# The MBP-sigma-1-receptor fusion protein was cleaved with Factor Xa protease (Novagen) at room temperature for 24-48 hours and the cleavage was monitored with SDS-polyacrylamide gel electrophoresis. The sigma-1 receptor from the Factor Xa cleavage was purified with a HIS-Select HC Nickel affinity gel (Sigma-Aldrich P6611) in a batch format. The resin was washed with buffer containing 0.5% Triton X-100 detergent and the beads were separated by a brief centrifugation at 4000 rpm in a microcentrifuge. After washing to remove MBP, the pure sigma-1 receptor was eluted in buffer containing 250 mM imidazole.
# To remove the undigested MBP-sigma-1 receptor fusion protein that is carried over in the Ni^2+ purification, the eluate from the Ni^2+ purification was incubated with Anti-MBP antibody conjugated to agarose (Vector Laboratories, Burlingame, Calif.) at 4° C. for 18-24 hours. The beads were separated by centrifugation and the supernatant contained the pure sigma-1 receptor.
# Competition ligand binding to the pure sigma-1 receptor was performed as previously described. […] After incubation at 30° C. for 60 minutes, the reaction was terminated by rapid filtration through glass fiber filters (Whatman GF/B), using a Brandel cell harvester (Brandel, Gaithersburg, Md.). The glass fiber filters were pre-soaked in 0.5% polyethyleneimine (PEI) for at least 1 hour at room temperature (˜23° C.). Filters were washed 4 times with 4 mL of ice-cold 50 mM Tris-C1, pH 8.0. Radioactivity was quantified by liquid scintillation counting using a Packard model 1600 CA scintillation counter.
# [2] = target: T2, sigma-1 receptor (Cavia porcellus, UniProt Q60492); assay: Sigma-1 competitive binding, (+)-[3H]pentazocine, guinea pig liver membranes (Example 6); parameters: from tissue; host or cells: guinea pig liver membranes;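 further: compounds tested over serial concentrations, 45 min incubation at 30 °C with membrane preparations, read-out is displacement of bound radioligand from the receptor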
# T2 sequence (Q60492 whole entry): as above
# Experimental: (§2) Minced frozen rat livers or guinea pig livers (65 g) were thawed in 100 mL homogenization buffer (10 mM phosphate buffer pH 7.4 containing 0.32M sucrose, 1 M MgSO4, 0.5 M EGTA, 1 mM phenylmethylsulphonyl fluoride (PMSF), 10 μg/mlleupeptin, 1 μg/ml pepstatin A, 10 μg/ml p-toluenesulfonyl-L-arginine methyl ester (TAME) and then homogenized on ice with a Brinkman polytron homogenizer (setting 6, 4 bursts of 10 second each) followed by a glass homogenizer (Teflon pestle by 6 slow passes at 3,000 rpm). The homogenized tissues were then centrifuged at 17,000 g for 10 minutes. The supernatants were re-centrifuged at 100,000 g for 1 hour. The microsomal pellets were resuspended in homogenization buffer, snap frozen with dry ice-ethanol, and stored at −80° C. at a final protein concentration of 20 mg/mL.
# (§3) Assays for sigma-1 were performed using 10 nM (+)-[^3H]pentazocine in guinea pig liver homogenates (25 μg/well) incubated at 30° C. for 1 hour with several concentrations of competing ligands. After incubation, membranes were harvested on a 0.5% PEI-treated Whatman GF/B filters using a Brandel Cell Harvester. (+)-[^3H]pentazocine binding was determined by liquid scintillation counting. […] Serial concentrations of the compounds evaluated were added to the reactions for 45 minutes at 30° C. and the samples vacuum filtered through 0.5% polyethyleneimine (PEI) treated Whatman GF/B as described above to measure displacement of the radioligands from the sigma receptor subtypes.
# [3] = target: T3, σ-2 Sites (Rattus norvegicus, UniProt Q5U3Y7); assay: σ-2 sites radioligand binding, rat liver membranes (Table 2)
# T3 construct: from tissue
# T3 sequence (Q5U3Y7 1-176): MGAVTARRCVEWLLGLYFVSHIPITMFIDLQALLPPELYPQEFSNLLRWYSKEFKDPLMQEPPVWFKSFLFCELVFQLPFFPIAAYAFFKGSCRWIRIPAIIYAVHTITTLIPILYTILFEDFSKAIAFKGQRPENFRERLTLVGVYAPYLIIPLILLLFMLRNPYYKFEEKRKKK
# Experimental: as §3
# [4] = target: T4, σ-1 Sites (Cavia porcellus, UniProt Q60492); assay: σ-1 sites radioligand binding, guinea pig liver membranes (Table 2); settings: for Ki: guinea pig liver membranes; for σ-1 selectivity σ-2 Ki/σ-1 Ki: σ-2 rat liver / σ-1 guinea pig liver membranes
# T4 construct: from tissue
# T4 sequence (Q60492 whole entry): as the sequence (Q60492 whole entry) above
# Experimental: as §3
# [5] = target: T2, sigma-1 receptor; assay: Affinity for the sigma-1 receptor (Table 3); type: binding; parameters: from tissue
# [6] = tested on: tumor cell lines; assay: Cytotoxicity assays, various tumor cell lines (statements in words); type: cell-based, human
# Experimental: Because sigma-1 receptors are overexpressed in numerous tumor cell lines, which include breast cancer, lung carcinoma, renal carcinoma, colon carcinoma, sarcoma, brain tumors, melanoma, glioblastoma, neuroblastoma, and prostate cancer, the ability of the compounds to inhibit the growth of various tumor cell lines were tested.
# (§1) Multi-plex cytotoxicity assays were performed by the Keck-UWCCC Small Molecule Screening Facility (Madison, Wis.). Specific methodology can be found online at http://hts.wisc.edu/Resources.htm#mpa.
# [7] = target: T5, sigma-2 receptor (Rattus norvegicus, UniProt Q5U3Y7); assay: Sigma-2 competitive binding, [3H]-DTG with (+)-pentazocine, rat liver membranes (Example 6); parameters: from tissue; host or cells: rat liver membranes
# T5 sequence (Q5U3Y7 1-176): T3 sequence (Q5U3Y7 1-176)
# Experimental: as §2, §3
# [8] = tested on: SKOV-3; assay: Cytotoxicity assay SKOV-3; type: cell-based; settings: Homo sapiens, SK-OV-3, HU Ovarian, read-out: IC50 (SE) growth inhibition
# Experimental: as §1
# [9] = tested on: MB-MDA-231; assay: Cytotoxicity assay MB-MDA-231; type: cell-based; settings: Homo sapiens, HU Breast, read-out: IC50 (SE) growth inhibition
# Experimental: as §1
# [10] = tested on: HT-29; assay: Cytotoxicity assay HT-29; type: cell-based; settings: Homo sapiens, HU Colorectal, read-out: IC50 (SE) growth inhibition
# Experimental: as §1
# [11] = tested on: MCF7; assay: Cytotoxicity assay MCF7; type: cell-based; settings: Homo sapiens, HU Breast, read-out: IC50 (SE) growth inhibition
# Experimental: as §1
# [12] = tested on: HCT-45; assay: Cytotoxicity assay HCT-45; type: cell-based; settings: Homo sapiens, HU Colorectal, read-out: IC50 (SE) growth inhibition
# Experimental: as §1
# [13] = tested on: SF268; assay: Cytotoxicity assay SF268; type: cell-based; settings: Homo sapiens, SF-268, HU CNS, read-out: IC50 (SE) growth inhibition
# Experimental: as §1
# [14] = tested on: NCI-H460; assay: Cytotoxicity assay NCI-H460; type: cell-based; settings: Homo sapiens, HU lung, read-out: IC50 (SE) growth inhibition
# Experimental: as §1
# [15] = tested on: Du145; assay: Cytotoxicity assay Du145; type: cell-based; settings: Homo sapiens, DU-145, HU Prostate, read-out: IC50 (SE) growth inhibition
# Experimental: as §1
# [16] = tested on: MCP10A; assay: Cytotoxicity assay MCP10A; type: cell-based; settings: Homo sapiens, HU Breast, read-out: IC50 (SE) growth inhibition
# Experimental: as §1
# [17] = tested on: A549; assay: Cytotoxicity assay A549; type: cell-based; settings: Homo sapiens, HU lung, read-out: IC50 (SE) growth inhibition
# Experimental: as §1
# [18] = tested on: HI299; assay: Cytotoxicity assay HI299; type: cell-based; settings: Homo sapiens, HU Lung, read-out: IC50 (SE) growth inhibition
# Experimental: as §1
# [19] = guinea pig liver membranes, n = 3, read-out: Sigma 1 KD values
# [20] = rat liver membranes, n = 3, read-out: Sigma2 KD values
smiles,measurement,setting,value
CCCCCN [Amylamine],Ki,[1]; [3H]-(+)-pentazocine 10 nM,167 ± 35.2 µM
CN(C)CCc1c[nH]c2ccccc12 [Compound 1],Kd,[2]; [19],> 50000 µM
"CCCCNCCCc1ccc([N+](=O)[O-])cc1 [Compound 1b, N-(3-(4-Nitrophenyl)propyl)butan-1-amine]",Ki,[3],0.022 µM
same,Ki,[4],0.003 µM
same,σ-1 selectivity σ-2 Ki/σ-1 Ki,[4],7
same,Ki,[1]; [3H]-(+)-pentazocine,0.02 µM
"CCCCCCCNCCCc1ccc([N+](=O)[O-])cc1 [Compound 1d, N-(3-(4-Nitrophenyl)propyl)heptane-1-amine]",Ki,[3],0.011 µM
same,Kd,[5]; read-out: Sigma-1 KD,0.0057 µM
same,Ki,[4],0.01 µM
same,σ-1 selectivity σ-2 Ki/σ-1 Ki,[4],1
same,cytotoxicity / tumor cell growth inhibition,[6],remarkable activity for inhibiting tumor growth
same,Ki,[1]; [3H]-(+)-pentazocine,0.0075 ± 0.0012 µM
"CCCCCCCCCCCCNCCCc1ccccc1 [Compound 1e, N-(3-Phenylpropyl)dodecan-1-amine]",Ki,[3],2.1 µM
same,Ki,[4],5.3 µM
same,Ki,[1]; [3H]-(+)-pentazocine,0.0632 µM
"CCCCCCCCCCCCNCCCc1ccc([N+](=O)[O-])cc1 [Compound 1f, N-(3-(4-Nitrophenyl)propyl)dodecan-1-amine]",Ki,[3],2.38 µM
same,Kd,[5]; read-out: Sigma-1 KD,0.00039 µM
same,Ki,[4],5.17 µM
same,cytotoxicity / tumor cell growth inhibition,[6],remarkable activity for inhibiting tumor growth
same,Ki,[1]; [3H]-(+)-pentazocine,0.0318 µM
"CCCCCCCCCCCCCCCCCCNCCCc1ccccc1 [Compound 1g, N-(3-Phenylpropyl)octadecan-1-amine]",Ki,[3],19.9 µM
same,Ki,[4],34.4 µM
same,σ-1 selectivity σ-2 Ki/σ-1 Ki,[4],0.7
same,Ki,[1]; [3H]-(+)-pentazocine,0.0422 µM
"CCCCCCCCCCCCCCCCCCNCCCc1ccc([N+](=O)[O-])cc1 [Compound 1h, N-(3-(4-Nitrophenyl)propyl)octadecan-1-amine]",Ki,[3],8.83 µM
same,Ki,[4],26.9 µM
same,σ-1 selectivity σ-2 Ki/σ-1 Ki,[4],0.3
same,Ki,[1]; [3H]-(+)-pentazocine,0.0415 µM
NCCCc1ccccc1 [Compound 2],Kd,[7]; [20],270 µM
same,Ratio (σ2/σ1),[2],3.92
same,Kd,[2]; [19],68.9 µM
CCCC[N+](CCCC)(CCCC)CCCC [Compound 3],Kd,[7],268 µM
same,Kd,[2],54.7 µM
same,Ratio (σ2/σ1),[2],4.90
CCCCN(CCCC)CCCC [Compound 6],Kd,[7]; [20],44.8 µM
same,Ratio (σ2/σ1),[2],6.41
same,Kd,[2]; [19],7 µM
"CCCCCCCCN(CCCCCCCC)CCCc1ccc(F)cc1 [Compound 8, N,N-Dioctyl-3-(4-fluorophenyl)propylamine]",Kd,[7]; [20],1.65 µM
same,Ratio (σ2/σ1),[2],2.49
CCCNCCc1ccc(F)cc1 [Compound 9],Kd,[7],0.23 µM
same,Kd,[2],0.091 µM
same,Ratio (σ2/σ1),[2],2.53
"CCCCN(CCCC)CCCc1ccc(F)cc1 [Compound 10, N,N-Dibutyl-3-(4-fluorophenyl)propylamine]",IC50,[8],56.2 µM
same,Kd,[7]; [20],0.685 µM
same,IC50,[9],> 100 µM
same,IC50,[10],> 100 µM
same,IC50,[11],> 100 µM
same,IC50,[12],> 100 µM
same,IC50,[13],> 100 µM
same,IC50,[14],> 100 µM
same,Ratio (σ2/σ1),[2],38.7
same,Kd,[2]; [19],0.0177 µM
same,IC50,[15],> 100 µM
same,IC50,[16],> 100 µM
same,IC50,[17],> 100 µM
same,IC50,[18],> 100 µM
"CCCN(Cc1ccc([N+](=O)[O-])cc1)C(=O)CCc1ccc(F)cc1 [Compound 13, N-Propyl-N-(4-nitro-benzyl)-3-(4-fluorophenyl)propionamide]",Kd,[7]; [20],236 µM
"CCCN(CCCc1ccc(F)cc1)Cc1ccc(N)c(I)c1 [Compound 14, N-Propyl-N-(4-amino-3-iodo-benzyl)-3-(4-fluorophenyl)propylamine]",Kd,[7]; [20],133 µM
same,Ratio (σ2/σ1),[2],0.3389
same,Kd,[2]; [19],393 µM
CCCN(CCCc1ccc(F)cc1)Cc1ccc(N=[N+]=[N-])c(I)c1 [Compound 15],Ratio (σ2/σ1),[2],570.8 ^
"CCCCNCc1ccc([N+](=O)[O-])cc1 [Compound 16, N-Butyl-N-4-nitrobenzylamine]",Kd,[7]; [20],1.68 µM
same,Ratio (σ2/σ1),[2],1.4622
same,Kd,[2]; [19],1.15 µM
"CCCN(CCC)CCc1c[nH]c2ccccc12 [DPT, reference compound]",Kd,[5],1.6 µM
CCCCCCCCCCCCN [Dodecylamine],Ki,[1]; [3H]-(+)-pentazocine 10 nM,0.18 µM and 0.2 µM
CCCCN(CCCC)CCCc1ccc(F)cc1 [HD1],Kd,[5]; read-out: Sigma-1 KD,0.0177 µM
CCCCN(CCCC)CCCc1ccc([N+](=O)[O-])cc1 [HD2],Kd,[5]; read-out: Sigma-1 KD,0.00036 µM
CCCN(CCCc1ccc([N+](=O)[O-])cc1)CCc1ccc(N)cc1 [HD4],Kd,[5]; read-out: Sigma-1 KD,0.006 µM
CCCN(CCCc1ccc(F)cc1)CCc1ccc(N=[N+]=[N-])c(I)c1 [HD5],cytotoxicity / tumor cell growth inhibition,[6],potent cell growth inhibitor of both MB-MDA-231 and MCF7
CCCNCCc1ccc(F)cc1 [HD7],Kd,[5],0.091 µM
CCCCCCCCCCCCCCCCN [Hexadecylamine],Ki,[1]; [3H]-(+)-pentazocine 10 nM,2.7 µM and 3 µM
CCCCCCN [Hexylamine],Ki,[1]; [3H]-(+)-pentazocine 10 nM,37.5 µM and 37 µM
CCCCCCCCN [Octylamine],Ki,[1]; [3H]-(+)-pentazocine 10 nM,5.6 µM and 6 µM
CCCCCCCCCCCCCCCCCCN [Stearylamine],Ki,[1]; [3H]-(+)-pentazocine 10 nM,8.5 µM and 8 µM
CCCCCCCNCCCc1ccccc1 [UC1],Kd,[5]; read-out: Sigma-1 KD,0.012 µM
CCCCCCCCCCCCNCCCc1ccccc1 [UC3],Kd,[5]; read-out: Sigma-1 KD,0.092 µM

# Reference: patent US8946302B2, “Selective sigma-1 receptor ligands” (Wisconsin Alumni Research Foundation, priority 2008, dated 2015)
